Reference: ChEMBL document CHEMBL3507680, “University of Dundee, Gates Library screen for HepG2 cell viability”

Experiment: Human HepG2 cell viability assay in 384 well format
Type: toxicity, cell-based
Set-up: dose 125 nL, time 70.5 hour; cytotoxicity at 70.5 h: concentration not given beside the values
Details: HepG2 cells, read-out: Inhibition

Structure (SMILES) | cytotoxicity at 70.5 h
O=C([C@H]1CCCO1)N1Cc2nccn2CC(COc2cccnc2)C1 (stereo partly specified) | -4.93%
Cn1cc(CN2CCC3(CCCN3S(C)(=O)=O)CC2)cn1 | 12.4%
Cc1nc(C2CCCN(C(=O)c3ccnc(N(C)C)c3)C2)no1 (stereo unspecified) | -3.61%
O=C(COc1ccc2c(c1)CCC2)N1CCCC1c1ccc[nH]1 (stereo unspecified) | -23.1%
O=C(NCC1(N2CCOCC2)CCSC1)Nc1ccncc1 (stereo unspecified) | -6.91%
CC(C)Cc1nc(OCC(=O)O)c(C#N)c2c1CCC2 | 3.53%
CS(=O)(=O)NCCNc1ncnc2cccc(F)c12 | -6.37%
Cc1ccc(C(=O)N2CCOCC2C(N)=O)c(F)c1 (stereo unspecified) | -8.13%
CCC1CN(CC(=O)Nc2cc(C)nn2C)CCO1 (stereo unspecified) | -5.03%
C[S+]([O-])c1ccc(NC(=O)CC2=CCCCC2)cc1 (stereo unspecified) | -3.55%
CC(c1ccccc1)N1CCC(NC(=O)CCc2ccsc2)CC1 (stereo unspecified) | -7.82%
O=C(Nc1cn[nH]c1)N1CCCCCC1c1ccncc1 (stereo unspecified) | -8.75%
O=C(CCn1ccccc1=O)Nc1ccc(F)c(Cl)c1 | -11.7%
Cc1csc(C(=O)NCCn2nc(-n3cncn3)ccc2=O)c1 | -6.83%
COC(=O)N1CC[C@@]2(C1)[C@H](OC)CN(c1ccccc1)S2(=O)=O | -11.4%
Cc1ccc(CNC2(Cc3cc(-c4ccccn4)on3)COC2)o1 | -1.75%
CCCC(=O)N(C)c1cccc2ncccc12 | -1.87%
OCc1c(Cl)ncn1-c1ccc(F)cc1 | 2.53%
c1ccc(CCN2CCN(c3ccc4nncn4n3)CC2)cc1 | -1.86%
Cc1[nH]c2c(F)cccc2c1CC(=O)N1CCC(NS(C)(=O)=O)CC1 | -7.49%
Cc1ccc(O[C@@H]2C[C@H]3CN(Cc4nccn4C)CCN3C2)cc1 | -4.55%

Structure (SMILES) | cytotoxicity at 70.5 h
COc1ccccc1CC(=O)NS(=O)(=O)c1ccc(C#N)cc1 | 4.13%
CCS(=O)(=O)c1ccc(N2CCC(NC(=O)CCC(C)C)CC2)cc1 | -9.09%
O=C(c1ccccc1)N1CCN(C2CCc3ccc(F)cc32)CC1 (stereo unspecified) | -9.61%
COc1ccc(C(=O)COc2coc(CN3CCSCC3)cc2=O)cc1 | -19.9%
CCNC(=O)Cn1ncc(N(C)CCc2ccccc2)cc1=O | 8.48%
Cc1nc(C(Cc2ccsc2)NC(=O)CCN2CCOCC2)sc1C (stereo unspecified) | -7.23%
Cc1cc(C)c(CNC(=O)NCC(O)c2cccc(F)c2)c(=O)[nH]1 (stereo unspecified) | -3.53%
c1ccc2oc(N3CCCC4(CCOC4)C3)nc2c1 (stereo unspecified) | -5.71%
O=C(NCc1c(F)cccc1F)C1CN(C(=O)c2cnccn2)C1 | -6.6%
CCN(CC)C(=O)CSc1nc2cc(C)nc-2c(O)n1Cc1ccco1 | -10.9%
Cc1ccc(C(=O)NCCNc2ncccc2C#N)c(=O)[nH]1 | 20.6%
CCOC(=O)CN1CCC2(CC1)CC(=O)c1ccc3ccccc3c1O2 | -5.23%
CCOCC(=O)Nc1cc(-c2cccc(F)c2F)n[nH]1 | -7.88%
CCn1ncc2c1C(COCC1CC1)N(C(=O)c1ccncn1)CC2 (stereo unspecified) | -11.3%
CC(C)NC(=O)[C@@H]1CN(C)C[C@]12COc1ccc(F)cc1C2=O | -5.13%
COc1ncccc1NC(=O)N1CCC(CNC(C)=O)CC1 | -7.14%
Cc1noc(C)c1C(C)C(=O)N1CCCN(Cc2cscn2)CC1 (stereo unspecified) | -9.23%
CCC(NC1Cc2ccccc2C1)c1ccc(S(C)(=O)=O)cc1 (stereo unspecified) | -14.8%
Cn1nc(C(=O)NCc2ccc(F)cc2)c2c1CCS(=O)(=O)C2 | -6.3%
CC(NC(=O)N1CCNC(=O)CC1)c1c(F)cccc1Cl (stereo unspecified) | -4.44%
CCOc1ccc(Cl)c(C(=O)N2CCN(C(=O)c3ccoc3C)CC2)n1 | -1.97%

Structure (SMILES) | cytotoxicity at 70.5 h
CCn1c(CN2CCOC(Cn3cccn3)C2)nc2c(F)cccc21 (stereo unspecified) | -3.89%
N[C@@H](Cc1c[nH]cn1)C(=O)N1CCC(Oc2ccc(Cl)cc2)CC1 | 28.2%
CCN1CC2(CCC1=O)CCN(C(=O)c1ccc(C)cc1O)CC2 | -14.7%
CCc1cnc2c(c1Nc1cccc(OC)c1)c(=O)n(C)c(=O)n2C | 1.18%
CC(C)COC(C)C(=O)NCc1ccc(-n2cncn2)nc1 (stereo unspecified) | 3.66%
Cn1cc(C(=O)N[C@H]2CN(S(C)(=O)=O)[C@@H]3CCCO[C@H]23)cn1 | -9.45%
CN(C)c1ncc(CN2CCC(c3nnsc3S(C)(=O)=O)CC2)cn1 | -19.4%
CC(c1cccc(S(N)(=O)=O)c1)N(C)CCc1ccccc1 (stereo unspecified) | 11.5%
CC(C)c1n[nH]c(C2CN(C(=O)c3cc(C4CC4)[nH]n3)CCO2)n1 (stereo unspecified) | -10.5%
Cc1cnn(CC2CCCN2C(=O)Cc2cccs2)c1 (stereo unspecified) | -8.39%
O=C(c1ccc(F)cc1F)N1CCN(C(=O)C2CCCCC2)CC1 | -5.82%
CC(=O)N1CCC2(CC1)CN(C(=O)C1CC1)c1ccc(F)cc12 | -0.352%
CC(NC(=O)Cn1cccnc1=O)c1ccc(C(F)(F)F)cc1 (stereo unspecified) | 12%
CCNC(=O)C1CCN(c2nccc(C3CCCC3)n2)C1 (stereo unspecified) | -17.7%
COc1cccc(Cn2ncc(N(C)CCc3ccccc3)cc2=O)c1 | -6.35%
Cc1cnc(C)c(N2CCC(c3nnc(CN(C)C)n3C3CC3)CC2)n1 | 11.2%
Cc1ccccc1OCCC(=O)N1CCCC(n2cncn2)C1 (stereo unspecified) | -6.17%
O=C(CCn1ccc(=O)[nH]c1=O)N1CCC(Oc2ccccn2)CC1 | -4.88%
COc1nc2cc(C)ccc2cc1CN(C)Cc1cc(C)[nH]n1 | -6.96%
CCOc1ccnc(N[C@@H](Cc2ccccc2)C(N)=O)n1 | -6.36%
CCn1ncc(CN2C[C@@H]3CCCN3C[C@H]2CCSC)c1C | 1.32%

Structure (SMILES) | cytotoxicity at 70.5 h
CCN(CC)C(=O)Cn1nc(C(C)C)c2cnn(C(C)(C)C)c2c1=O | 13.7%
O=C1CSC(c2ccc(F)c(Cl)c2)c2c(n(C3CCOCC3)[nH]c2=O)N1 (stereo unspecified) | 10.3%
COc1cccc(C(=O)Nc2cc(CC(C)C)nn2C)c1 | 3.59%
O=S(=O)(Cc1ccccc1)NC[C@H]1Cn2ccnc2CO1 | 10.3%
Cn1c(Cn2ncc(N3CCCCC3)cc2=O)nc2ccccc21 | 44.3%
CC(C)C(NC(=O)Cn1ccc(=O)n(C)c1=O)c1ccc(F)cc1 (stereo unspecified) | -13.2%
CCN(C(=O)CN1CCCC1c1ccc(OC)cc1)c1ccccc1C (stereo unspecified) | -0.0656%
COc1ccc(Oc2ncccc2F)cc1CN1CCCC1 | 3.51%
COc1c(C(N)=O)cn(C)c1-c1nc2cc(NC(C)=O)ccc2n1C | -14.7%
Fc1cccc(N2CCOC3(CCCN(c4cnccn4)C3)C2)c1 (stereo unspecified) | -7.3%
Cc1ccc(-c2nc(CSCCC(=O)NC(N)=O)co2)cc1 | -11.4%
O=C(c1ccnnc1)N1CCO[C@H]2[C@H](Oc3cccnc3)CC[C@@H]21 | -13.8%
NC(=O)C1CCCN(C(=O)c2ccn(-c3ccc(F)cc3)n2)C1 (stereo unspecified) | -5.61%
CN(C)CCN(C)C(=O)c1ccccc1-n1cc(CN(C)C)cn1 | -0.093%
Cc1ccc(-c2nc3c([nH]2)CCNC3C(=O)O)c2cccnc12 (stereo unspecified) | -6.16%
COCC1CCN(C(=O)c2cn(Cc3ccccc3F)nn2)CC1 | 5.43%
Cc1ccccc1CN1C[C@@H](CN(C)CCO)[C@@H](CO)C1 | -11.6%
Cc1ccc(NC(C(N)=O)c2ccc(F)cc2)cc1 (stereo unspecified) | -0.0602%
